Test results as given in publication PMC7830877, “Possibility to Biotransform Anthracyclines by Peroxidases Produced by Bjerkandera adusta CCBAS 930 with Reduction of Geno- and Cytotoxicity and Pro-Oxidative Activity” (Molecules, 2021).
Read-outs that look alike come from different tables or passages of the source.

Legend:
B. adusta CCBAS 930 = assay: Free radical (SOR) content in B. adusta CCBAS 930 cultures (NBT); design: species or system Bjerkandera adusta
Experimental: The content of PhC was determined spectrophotometrically at A740nm according to Singleton and Rossi (1965) with a slight modification. SOR levels were estimated based on the detection of superoxide-induced formazan formation from nitrotetrazolium blue (NBT) (A560nm). Untreated medium with DNR or DOX at a concentration of 10 µg/mL was used as control.

[1] = DPPH radical scavenging assay; assay type: physicochemical; details: initial solutions 10 µg/mL
Experimental: Antioxidant activity was measured using the DPPH^• radical scavenging assay according to Brand-Williams et al. (1995). Each 100 μL of post-culture fluids and initial DNR and DOX (10 μg/mL) solutions were mixed with 100 μL of […] DPPH^• solution in 96% ethanol. Following 30 min incubation at room temperature, sample absorbance was measured […]) using 96% ethanol as a blank sample.

V. fischeri = assay: Ecotoxicity assay (Microtox); assay type: cell-based, Vibrio fischeri; details: initial media 10 µg/mL or decolorized post-culture fluids
Experimental: The Microtox® (Model 500 Analyzer, London, UK) toxicity assay was used to evaluate the inhibition of luminescence of V. fischeri marine bacteria for untreated medium supplemented with DNR and DOX (10 µg/mL) and post-culture liquids of B. adusta CCBAS 930 according to the manufacturer’s protocol.

BJ fibroblasts [2] = assay: Resazurin reduction assay; assay type: cell-based, human; details: BJ cells, medium with initial solution
Experimental: The human skin fibroblasts cell line BJ (ATCC CRL-2522) was obtained from American Type Culture Collection (ATCC, distributors: LGC Standards, Łomianki, Poland). BJ cells were maintained in MEM medium without phenol red supplemented with 10% fetal bovine serum (FBS). Cells were maintained at 37 °C in a humidified atmosphere with 5% CO2. Cells were seeded in 96-well culture plates (Costar, St. Louis, MO, USA) at a density of 5 × 10^3 per well and initially cultured before the experiment for 24 h. […] The resazurin reduction cell viability and metabolism assay was performed according to a previously described method. On the day of analysis, a working solution of 60 µM resazurin was prepared in medium containing 1% FBS. […] Fluorescence was measured with an excitation wavelength of 530 nm and emission 590 nm on a FilterMax F5 Multi-Mode microplate reader (Molecular Devices, Corp., Sunnyvale, CA, USA) for 1 and 2 h after dye addition.

BJ fibroblasts [3] = assay: ROS production (H2DCFDA); assay type: cell-based, human; details: BJ cells
Experimental: The human skin fibroblasts cell line BJ (ATCC CRL-2522) was obtained from American Type Culture Collection (ATCC, distributors: LGC Standards, Łomianki, Poland). BJ cells were maintained in MEM medium without phenol red supplemented with 10% fetal bovine serum (FBS). Cells were maintained at 37 °C in a humidified atmosphere with 5% CO2. Cells were seeded in 96-well culture plates (Costar, St. Louis, MO, USA) at a density of 5 × 10^3 per well and initially cultured before the experiment for 24 h. […] The ROS measurement was performed according to a previously described method. […] The cells were incubated in H2DCFDA in serum-free and phenol red-free medium for 45 min before conditioned medium treatment. After 24 and 48 h of incubation of the cells with increasing concentrations of compounds (5% CO2 at 37 °C), the culture medium was replaced with fresh medium to remove extracellular residual DCF and studied compounds to reduce the fluorescence background. Cells treated with 0.3% hydrogen peroxide (H2O2) were used as a positive control (result not shown).

[4] = tested on: caspase-3 activity in BJ fibroblasts; assay: Caspase-3 activity; assay type: cell-based, human; details: BJ cells; 24 h; medium with initial solutions
Experimental: The human skin fibroblasts cell line BJ (ATCC CRL-2522) was obtained from American Type Culture Collection (ATCC, distributors: LGC Standards, Łomianki, Poland). BJ cells were maintained in MEM medium without phenol red supplemented with 10% fetal bovine serum (FBS). Cells were maintained at 37 °C in a humidified atmosphere with 5% CO2. Cells were seeded in 96-well culture plates (Costar, St. Louis, MO, USA) at a density of 5 × 10^3 per well and initially cultured before the experiment for 24 h. […] Caspase-3 activity was assessed according to previous described method Nicholson et al. After 24 or 48 h of treatment with studied media culture plates were frozen in −80 °C and kept until assay. […] The lysates were incubated with substrate Ac-DEVD-pNA for caspase-3 at 37 °C. Cells treated with 1 μM staurosporine were used as a positive control (results not shown). After 30 min, absorbance of the lysates at 405 nm was measured using a microplate reader (FilterMax F5 Multi-Mode microplate reader). The amount of colorimetric product was continuously monitored for 120 min. The data were analyzed using Multi-Mode Analysis software (Molecular Devices, Corp., Sunnyvale, CA, USA).

BJ fibroblasts [5] = assay: Calcein AM staining; assay type: cell-based, human; details: BJ cells; 24 and 48 h; parent vs Control 1, metabolite vs parent
Experimental: The human skin fibroblasts cell line BJ (ATCC CRL-2522) was obtained from American Type Culture Collection (ATCC, distributors: LGC Standards, Łomianki, Poland). BJ cells were maintained in MEM medium without phenol red supplemented with 10% fetal bovine serum (FBS). Cells were maintained at 37 °C in a humidified atmosphere with 5% CO2. Cells were seeded in 96-well culture plates (Costar, St. Louis, MO, USA) at a density of 5 × 10^3 per well and initially cultured before the experiment for 24 h.

[6] = design: method as in PMID 17867890; details: SOS Chromotest, cited from earlier work
bacteria = assay: Genotoxicity assay (SOS ChromoTest); details: before treatment

Compound: COc1cccc2c1C(=O)c1c(O)c3c(c(O)c1C2=O)C[C@@](O)(C(=O)CO)C[C@@H]3O[C@H]1C[C@H](N)[C@H](O)[C@H](C)O1 [DOX, doxorubicin]
- decrease in the content of free radicals (B. adusta CCBAS 930): 90.70%
- antioxidant activity (DPPH scavenging) [1]: did not show any antioxidant activity
- toxicity units (TU) (V. fischeri): 1.90 ± 0.13
- decrease in resazurin reduction compared to Control 1 (BJ fibroblasts [2]; 24 h): 50.36%
- decrease in resazurin reduction compared to Control 1 (BJ fibroblasts [2]; 48 h): 40.36%
- ROS production induced compared to Control 1 (BJ fibroblasts [3]; 24 h): 680.22%
- ROS production induced compared to Control 1 (BJ fibroblasts [3]; 48 h): 457.34%
- caspase-3 activity [4]: not affected
- cell number (calcein AM staining) (BJ fibroblasts [5]): decrease in cell number
- concentration exhibiting genotoxic properties ([6]; with metabolic activation): 98 ng/mL
- concentration exhibiting genotoxic properties ([6]; without metabolic activation): 74 ng/mL
- CIF (corrected induction factor) (bacteria; C 0.15 µg mL^−1): 2.88
- CIF (corrected induction factor) (bacteria; C 0.31 µg mL^−1): 1.21
- CIF (corrected induction factor) (bacteria; C 0.62 µg mL^−1): 1.23
- CIF (corrected induction factor) (bacteria; C 1.25 µg mL^−1): 2.53
- CIF (corrected induction factor) (bacteria; C 2.50 µg mL^−1): 3.27
- CIF (corrected induction factor) (bacteria; C 5 µg mL^−1): 3.70
- CIF (corrected induction factor) (bacteria; C 10 µg mL^−1): 9.58

Compound: COc1cccc2c1C(=O)c1c(O)c3c(c(O)c1C2=O)C[C@@](O)(C(C)=O)C[C@@H]3O[C@H]1C[C@H](N)[C@H](O)[C@H](C)O1 [DNR, daunomycin]
- decrease in the content of free radicals (B. adusta CCBAS 930): 90.30%
- antioxidant activity (DPPH scavenging) [1]: did not show any antioxidant activity
- toxicity units (TU) (V. fischeri): 1.79 ± 0.09
- decrease in resazurin reduction compared to Control 1 (BJ fibroblasts [2]; 24 h): 48.49%
- decrease in resazurin reduction compared to Control 1 (BJ fibroblasts [2]; 48 h): 48.40%
- ROS production induced compared to Control 1 (BJ fibroblasts [3]; 24 h): 625.72%
- ROS production induced compared to Control 1 (BJ fibroblasts [3]; 48 h): 372.97%
- caspase-3 activity [4]: not affected
- cell number (calcein AM staining) (BJ fibroblasts [5]): decrease in cell number
- CIF (corrected induction factor) (bacteria; C 0.15 µg mL^−1): 2.50
- CIF (corrected induction factor) (bacteria; C 0.31 µg mL^−1): 1.60
- CIF (corrected induction factor) (bacteria; C 0.62 µg mL^−1): 1.21
- CIF (corrected induction factor) (bacteria; C 1.25 µg mL^−1): 1.54
- CIF (corrected induction factor) (bacteria; C 2.50 µg mL^−1): 2.80
- CIF (corrected induction factor) (bacteria; C 5 µg mL^−1): 5.68
- CIF (corrected induction factor) (bacteria; C 10 µg mL^−1): 13.42
